One compound from patent publication US8969088B2, “Substrate mimicking intercellular lipids in stratum corneum and method of evaluating skin roughening using the same” (Shiseido Company, Ltd., priority 2008, dated 2015) can be followed below.

This data set in a line: Myelin figure formation on exposing the lipids-mimicking substrate to surfactant (microscopy). The settings on record: aqueous solution 5.0 mg/cm^3, 25° C., 6 hours, lipid membrane 50 μm. As for the experimental part: Multiple substrates mimicking intercellular lipids in stratum corneum, each having a lipid membrane controlled to a thickness of 50 μm were exposed to an aqueous solution (5.0 mg/cm^3) of SDS (99.0%) (Nacalai Tesque, Inc., Kyoto, Japan) at a temperature of 25° C. for 6 hours. Each exposed substrate was rinsed with a small amount of water and dried, and used for the following evaluation test.
Upon examination of surfactants other than SDS, a myelin figure was formed with some and not formed with others. For each of the examined surfactants, the shortest distance from the edge of the substrate to the tip of the myelin figure (hereunder referred to as “myelin figure formation distance”) was measured.

For `CCCCCCCCCCCCOS(=O)(=O)[O-].[Na+]` [SDS], the myelin figure formation result is “formation of a myelin figure within a constant range”.
